# Read-outs that look alike come from different tables or passages of the source.
# How the values were obtained:
# [1] = Solid stability test (XRPD crystal form after storage); format: physicochemical
# Source text: The samples placed at high temperature and humidity were sampled for XRPD testing on the 10th and 30th day; The samples exposed to light were put into a clean surface dish, laid into a thin layer, covered with a quartz glass cover, and sampled for XRPD testing on the 5th and 10th days; For the long-term test and accelerated test (shading), each sample were put into a double-layer LDPE bag, each layer of LDPE bag was respectively buckled and sealed, and then the LDPE bag was put into an aluminum foil bag with a package of desiccant and heat sealed. The samples were respectively placed at 25° C./60% RH, 30° C./65% RH and 40° C./75% RH for exploration, the test results were compared with the initial test results of 0 day and the test results were shown in Table 7 below.
# [2] = as above; format: physicochemical; conditions: 40° C./75% RH(open)
# [3] = Hygroscopicity study by dynamic vapor sorption (DVS); format: physicochemical; conditions: 80% RH/25° C.
# Description: Instrument model: SMS DVS Intrinsic dynamic vapor sorption instrument
# Test conditions: The sample (10 mg) was taken and placed in a DVS sample plate for testing.
# Detailed DVS parameters were as follows:
# Drying: 25° C., 0% RH drying for 2 hours
# Range of Rh (%) test step: 0%-95%-0% RH
# SMS DVS intrinsic dynamic vapor adsorption instrument
# A sample (10 mg) was taken and placed in a DVS sample plate for testing.
# BCR-FMS-BaF3 cells = test: CellTiter-Glo luminescent cell viability / cell proliferation assay; format: cell-based; conditions: for IC50: 72 h, BCR-FMS-BaF3, 3 days incubation
# Source text: Luminescent Cell Viability Assay (CellTiter-Glo® methold) from Promega was used for cell proliferation detection. CellTiter-Glo® Luminescent Cell Viability Assay (CellTiter-Glo® luminescent cell viability detection kit) was a homogeneous rapid detection method for detecting the viability of living cells in culture by quantitative determination of ATP. ATP was an indicator of the metabolism of living cells. Cell lysis and the resulting light signal were proportional to the amount of present ATP, and the amount of ATP is directly proportional to the number of living cells in the culture. The higher the fluorescence reading indicated the higher ATP content in the cell and also the higher the cell viability. Therefore, the inhibition degree of compound on cell proliferation can be monitored by fluorescence value. 1) The compound was diluted 2 mM with 100% DMSO, that is, 5 μL of 10 mM compound storage solution was taken and put into the first column of 96-well compound plate, then 20 μL of 100% DMSO were added and mixed well; 2) 20 μL of 100% DMSO was added to the second column to the tenth column of 96-well compound plate; 3) 5 μL of compound was taken from the first column to the second column and mixed well, and then 5 μL of compound was taken from the second column to the third column and mixed well. The above steps were repeated to the ninth column to complete the gradient dilution of the compound; 4) Preparation of compound working solution: 2 μL of compound per well from the second column of the compound plate was taken to a new 96 well compound plate, and 78 μL of cell culture medium per well was added; 2 μL of 100% DMSO from the negative control well was taken and 78 μL of cell culture medium was added; and 5) The compound concentration was the final concentration, in which the blank control well was the culture medium well without cells, and the negative control was 0.5% DMSO. 1) The BCR-FMS-BaF3 cell suspension was collected and centrifuged at 1000 rpm (revolutions per minute) for 5 minutes. The supernatant was removed, cells were resuspended with preheated medium and counted. After counting, the cell suspension was diluted with cell culture medium to the required density. Each well was inoculated with 80 μL cell suspension into 96 well cell culture plate. 2) On the day of the experiment, 20 μL of compound working solution was added to the cell plate and incubated for 3 days at 37° C. in a 5% CO2 incubator. [table] 3) After the incubation is completed, 20 μL of CTG detection reagent was added to each well of the cell plate, and incubated at 25° C. for 10 minutes. After the incubation is completed, EnVision was used for luminescence signal detection. […]
compound,measurement,setting,value
CNC(=O)c1nccc2c(-c3cnc(Nc4ccc(OC5CC5)nc4)cc3C)c[nH]c12.Cl,Crystal form (XRPD),[1]; 0 days (initial),crystal form B
same,Crystal form (XRPD),"[1]; 25° C./60% RH, 3 M",crystal form B
same,Crystal form (XRPD),"[1]; 25° C./60% RH, 6 M",crystal form B
same,Crystal form (XRPD),"[1]; 25° C./60% RH, 24 M",crystal form B
same,Crystal form (XRPD),"[1]; 30° C./65% RH, 1 M",crystal form B
same,Crystal form (XRPD),"[1]; 30° C./65% RH, 3 M",crystal form B
same,Crystal form (XRPD),"[1]; 30° C./65% RH, 6 M",crystal form B
same,Crystal form (XRPD),"[1]; high humidity (25° C./relative humidity 92.5%, open), 10 days",crystal form B
same,Crystal form (XRPD),"[1]; high humidity (25° C./relative humidity 92.5%, open), 30 days",crystal form B
same,Crystal form (XRPD),"[1]; high temperature (60° C., open), 10 days",crystal form B
same,Crystal form (XRPD),"[1]; high temperature (60° C., open), 30 days",crystal form B
same,Solid stability (conclusion),"[1]; influencing factors, light, acceleration and long-term experimental conditions",good stability
same,Crystal form (XRPD),"[1]; strong light (5000 lx and UV intensity 90 w/cm^2, open), 5 days",crystal form B
same,Crystal form (XRPD),"[1]; strong light (5000 lx and UV intensity 90 w/cm^2, open), 10 days",crystal form B
same,Crystal form (XRPD),[2]; 1 M,crystal form B
same,Crystal form (XRPD),[2]; 3 M,crystal form B
same,Crystal form (XRPD),[2]; 6 M,crystal form B
same,Classification of hygroscopicity,[3],slight hygroscopicity
same,ΔW (hygroscopic weight gain),[3]; DVS,0.28%
same,IC50,"BCR-FMS-BaF3 cells; mean of N = 1 and N = 2, read-out: IC50 (nM) Mean value ± SD",2.46 ± 0.008 nM
same,IC50,"BCR-FMS-BaF3 cells; replicate N = 1, read-out: IC50 (nM) N = 1",2.46 nM
same,IC50,"BCR-FMS-BaF3 cells; replicate N = 2, read-out: IC50 (nM) N = 2",2.47 nM
same,Inhibition of proliferation of BCR-FMS-BaF3 cells (conclusion in words),BCR-FMS-BaF3 cells; BCR-FMS-BaF3 cells,significantly inhibit the proliferation
